SMILES strings stand for the structures. pIC50: −log10 of the molar value.

Among the data in EP0392802A2, “Preparation of urea analogues and their use in bronchial, cerebrovascular and neuronal disorders” (Beecham Group p.l.c., priority 1989, dated 1990) are IC50 values, retold here.

The assay has as its system guinea pig tracheal spiral preparations. Briefly: Bronchodilation in vitro; guinea pig tracheal spiral preparations (relaxation of resting tension relative to isoprenaline). To be noted: fall in tension as percentage of total relaxation evoked by 10⁻³M isoprenaline; cumulative dosing 10⁻⁸-2x10⁻⁵M; resting tension 2g; krebs solution at 37°C; read-out: IC₅₀. As for the experimental part:
Male guinea pigs (300-600g) were stunned by a blow to the head and bled from the carotid artery. The trachea was exposed, dissected free of connective tissue, and transferred to oxygenated krebs solution at 37 °C. Next, spirals (2 per trachea) were prepared by cutting the whole trachea spirally along its longitudinal axis and then dividing this spiral lengthwise. Each preparation was mounted, using silk thread, in a 10ml organ bath filled with krebs solution at 37 °C and bubbled with 5% CO₂ with O₂. The resting tension of the preparations was set at 2g and changes in muscle tension were monitored isometrically by means of a UFI (2oz) force and displacement transducer (Ormed Ltd) connected to a Linseis pen recorder. All preparations were allowed to equilibrate for 60 minutes. During this equilibration period the preparations were washed by upward displacement at 15 minute intervals and, if necessary, the resting tension was readjusted to 2g using a mechanical micromanipulator system.
Once a steady resting tension had been obtained, the preparations were dosed cumulatively with the test compound (10⁻⁸-2x10⁻⁵M), and finally a maximum relaxation achieved by addition of 10⁻³M isoprenaline.
The fall in tension evoked by the test compound was expressed as a percentage of the total relaxation evoked in the presence of 10⁻³M isoprenaline. […]

For `CC(NC(=S)Nc1ccc(F)cc1)C(C)(C)C` (racemic) [Example 3, (±)-N-4-Fluorophenyl-N′-1,2,2-trimethylprop-1-ylthiourea], the pIC50 was 5.23. Regarding `CC(NC(=NC#N)Nc1ccc(C#N)cc1)C(C)(C)C` (racemic) [Example 4, (±)-N˝-Cyano-N-4-cyanophenyl-N′-1,2,2-trimethylprop-1-ylquanidine], the pIC50 is 5.52.
